Laboratory results: patent US20200262865A1, “COMPOSITIONS AND METHODS FOR TREATING CLOSTRIDIUM ASSOCIATED DISEASES” (REGENTS OF THE UNIVERSITY OF MINNESOTA, priority 2016, published 2020)
Read-outs that look alike come from different tables or passages of the source.

Assays:
[1] = rat, in vivo; cited from earlier work
[2] = system: highly virulent NAP1 strain of C. difficile; conditions: cited from earlier work
[3] = system: Spores from a NAP1 strain of C. difficile; test: Optical density (OD600) C. difficile spore germination assay; assay type: cell-based, Clostridium difficile; conditions: BHIS with 2000 μM TCA, OD600 over 20 minutes; for IC100: read-out: concentration giving essentially complete inhibition of spore germination
NAP1 spores = test: Phase-contrast (microscope) spore count assay; assay type: cell-based, Clostridium difficile; conditions: for Percent Spore Germination t20 / Percent Spore Germination Relative to control / Percent Spore Germination t0: 10 μM bile acid analog; for Percent Spore Germination t20 / Percent Spore Germination Relative to control / inhibitor of spore germination (rating in words from Table 1 data): 2000 μM taurocholic acid; for Percent Spore Germination t20 / Percent Spore Germination Relative to control: after 20 minutes; for Percent Spore Germination t0: time zero, before exposure to TCA; for inhibitor of spore germination (rating in words from Table 1 data): 10 μM, 20 minutes
[4] = Clostridioides difficile, 20 min

SMILES	IC100 [3, 4]	Percent Spore Germination t20 (NAP1 spores)	Percent Spore Germination Relative to control (NAP1 spores)	Percent Spore Germination t0 (NAP1 spores)	inhibitor of spore germination (rating in words from Table 1 data) (NAP1 spores)	other results
CC(CCC(=O)O)C1CCC2C3C(OS(=O)(=O)O)CC4CC(O)CCC4(C)C3CCC12C (stereo not shown) [C7-sulfated UDCA]						absorption from the colon [1]: poorly absorbed
C[C@H](CCC(=O)Nc1cccc(S(=O)(=O)O)c1)[C@H]1CC[C@H]2[C@@H]3[C@H](O)C[C@@H]4C[C@H](O)CC[C@]4(C)[C@H]3C[C@H](O)[C@]12C [CamSA]						efficacy at inhibiting germination [2]: very little efficacy
COC(=O)CC[C@@H](C)[C@H]1CC[C@H]2[C@@H]3[C@H](O)C[C@@H]4C[C@H](O)CC[C@]4(C)[C@H]3CC[C@]12C [Comparative Example 1, reference compound]	500 µM	71 ± 1%	73 ± 1%	25 ± 6%	weak inhibitors	
COC(=O)CC[C@@H](C)[C@H]1CC[C@H]2[C@@H]3[C@@H](O)C[C@@H]4C[C@H](O)CC[C@]4(C)[C@H]3CC[C@]12C [Comparative Example 2]	100 µM					
CCCCNC(=O)CC[C@@H](C)[C@H]1CC[C@H]2[C@@H]3[C@H](O)C[C@@H]4C[C@H](O)CC[C@]4(C)[C@H]3CC[C@]12C [Comparative Example 3]	500 µM					
CCCCNC(=O)CC[C@@H](C)[C@H]1CC[C@H]2[C@@H]3[C@@H](O)C[C@@H]4C[C@H](O)CC[C@]4(C)[C@H]3CC[C@]12C [Comparative Example 4]	500 µM					
CO[C@H]1C[C@@H]2C[C@H](O)CC[C@]2(C)[C@H]2CC[C@]3(C)[C@@H]([C@H](C)CCC(=O)O)CC[C@H]3[C@H]12 [Comparative Example 10, reference compound]		71 ± 2%	75 ± 2%	25 ± 4%	weak inhibitors	concentration giving partial inhibition of spore germination [3]: 0.5 mM
COC(=O)CC[C@@H](C)[C@H]1CC[C@H]2[C@@H]3[C@@H](OC)C[C@@H]4C[C@H](O)CC[C@]4(C)[C@H]3CC[C@]12C [Comparative Example 11]	500 µM					
COC(=O)CC[C@@H](C)[C@H]1CC[C@H]2[C@@H]3[C@H](OC)C[C@@H]4C[C@H](O)CC[C@]4(C)[C@H]3CC[C@]12C [Comparative Example 14]	500 µM					
CC(=O)O[C@@H]1CC[C@@]2(C)[C@@H](C1)C[C@@H](OC(C)=O)[C@@H]1[C@@H]2CC[C@]2(C)[C@@H]([C@H](C)CCC(N)=O)CC[C@@H]12 [Comparative Example 20]	50 µM					
C[C@H](CCC(=O)N1CCCC1)[C@H]1CC[C@H]2[C@@H]3[C@@H](O)C[C@@H]4C[C@H](O)CC[C@]4(C)[C@H]3CC[C@]12C [Example 1]	100 µM					
C[C@H](CCC(=O)N1CCCC1)[C@H]1CC[C@H]2[C@@H]3[C@H](O)C[C@@H]4C[C@H](O)CC[C@]4(C)[C@H]3CC[C@]12C [Example 2]	100 µM					
COC(=O)CC[C@@H](C)[C@H]1CC[C@H]2[C@@H]3C[C@H](O)[C@@H]4C[C@H](O)CC[C@]4(C)[C@H]3CC[C@]12C [Example 3]	500 µM					
CO[C@@H]1CC[C@@]2(C)[C@@H](C1)C[C@H](OS(=O)(=O)[O-])[C@@H]1[C@@H]2CC[C@]2(C)[C@@H]([C@H](C)CCC(=O)N3CCCC3)CC[C@@H]12.[Na+] [Example 7]		30 ± 6%	9 ± 5%	18 ± 2%	potent inhibitors	
C[C@H](CCC1=NC(C)(C)CO1)[C@H]1CC[C@H]2[C@@H]3[C@@H](O)C[C@@H]4C[C@H](O)CC[C@]4(C)[C@H]3CC[C@]12C [Example 9]	500 µM					
C[C@H](CCc1nnn[nH]1)[C@H]1CCC2C3C(CC[C@@]21C)[C@@]1(C)CC[C@@H](O)CC1C[C@@H]3O (stereo partly shown) [Example 12]		29 ± 4%	19 ± 4%	17 ± 4%	moderate inhibitors	
C[C@H](CCc1nnn[n-]1)[C@H]1CC[C@H]2[C@@H]3[C@H](O)C[C@@H]4C[C@H](O)CC[C@]4(C)[C@H]3CC[C@]12C.[Na+] [Example 14]		22 ± 6%	12 ± 6%	15 ± 6%	potent inhibitors	IC100 [3]: 10 µM
CO[C@@H]1CC[C@@]2(C)[C@@H](C1)C[C@H](O)[C@@H]1[C@@H]2CC[C@]2(C)[C@@H]([C@H](C)CCc3nnn[n-]3)CC[C@@H]12.[Na+] [Example 15]		31 ± 4%	26 ± 4%	16 ± 4%	moderate inhibitors	
CO[C@@H]1CC[C@@]2(C)[C@@H](C1)C[C@@H](O)[C@@H]1[C@@H]2CC[C@]2(C)[C@@H]([C@H](C)CCc3nnn[n-]3)CC[C@@H]12.[Na+] [Example 16]		21 ± 4%	8 ± 4%	16 ± 4%	potent inhibitors	IC100 [3]: 5 µM
CO[C@@H]1CC[C@@]2(C)[C@@H](C1)C[C@H](OS(=O)(=O)[O-])[C@@H]1[C@@H]2CC[C@]2(C)[C@@H]([C@H](C)CCc3nnn[n-]3)CC[C@@H]12.[Na+].[Na+] [Example 17]		44 ± 3%	42 ± 3%	21 ± 3%	moderate inhibitors	
CO[C@@H]1CC[C@@]2(C)[C@@H](C1)C[C@@H](OS(=O)(=O)[O-])[C@@H]1[C@@H]2CC[C@]2(C)[C@@H]([C@H](C)CCc3nnn[n-]3)CC[C@@H]12.[Na+].[Na+] [Example 18]		48 ± 11%	51 ± 11%	20 ± 11%	moderate inhibitors	IC100 [3]: 25 µM
CO[C@@H]1CC[C@@]2(C)[C@@H](C1)C[C@@H](O)[C@@H]1[C@@H]2CC[C@]2(C)[C@@H]([C@H](C)CCC(=O)O)CC[C@@H]12 [KLS-1-012B]						concentration giving partial inhibition of spore germination [3]: 0.1 mM
CO[C@@H]1CC[C@@]2(C)[C@@H](C1)C[C@H](OC)[C@@H]1[C@@H]2CC[C@]2(C)[C@@H]([C@H](C)CCC(=O)O)CC[C@@H]12 [KLS-1-014A]						concentration giving partial inhibition of spore germination [3]: 1.0 mM
CO[C@@H]1CC[C@@]2(C)[C@@H](C1)C[C@H](O)[C@@H]1[C@@H]2CC[C@]2(C)[C@@H]([C@H](C)CCC(=O)O)CC[C@@H]12 [KLS-1-014B]						concentration giving partial inhibition of spore germination [3]: 0.50 mM
COC(=O)CC[C@@H](C)[C@H]1CC[C@H]2[C@@H]3[C@H](O)C[C@@H]4C[C@H](OC)CC[C@]4(C)[C@H]3CC[C@]12C [KLS-1-029D]	500 µM					
COC(=O)CC[C@@H](C)[C@H]1CC[C@H]2[C@@H]3[C@@H](O)C[C@@H]4C[C@H](OC)CC[C@]4(C)[C@H]3CC[C@]12C [KLS-1-031C]	500 µM					
